Results taken from PubChem BioAssay (NCI).
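Method: 48-hour compound exposure of cells in 96-well plates, five concentrations, linear interpolation of endpoints. At the GI50, growth is halved. TGI is the concentration that stops growth completely.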

Legend:
Experiment in all cases: inhibition of tumour cell growth, NCI panel, 48 h
SN12C renal = system: SN12C renal
EKVX NSCLC = system: EKVX NSCLC
HCT-116 colon = system: HCT-116 colon
A549 NSCLC = system: A549 NSCLC
HCC-2998 colon = system: HCC-2998 colon
SK-OV-3 ovarian = system: SK-OV-3 ovarian
SK-MEL-28 melanoma = system: SK-MEL-28 melanoma
SR leukemia = system: SR leukemia
HOP-62 NSCLC = system: HOP-62 NSCLC
SK-MEL-2 melanoma = system: SK-MEL-2 melanoma

Row | Structure (SMILES) | GI50 (SN12C renal) | TGI (SN12C renal) | GI50 (EKVX NSCLC) | TGI (EKVX NSCLC) | GI50 (HCT-116 colon) | TGI (HCT-116 colon) | GI50 (A549 NSCLC) | TGI (A549 NSCLC) | GI50 (HCC-2998 colon) | TGI (HCC-2998 colon) | GI50 (SK-OV-3 ovarian) | TGI (SK-OV-3 ovarian) | GI50 (SK-MEL-28 melanoma) | TGI (SK-MEL-28 melanoma) | GI50 (SR leukemia) | TGI (SR leukemia) | GI50 (HOP-62 NSCLC) | TGI (HOP-62 NSCLC) | TGI (SK-MEL-2 melanoma) | GI50 (SK-MEL-2 melanoma)
1 | CC1c2ccccc2N=C2SC(=S)N3CCN=C3N21 (stereo not drawn) | > 100 µM | > 100 µM | 4.33 µM | > 100 µM | > 100 µM | > 100 µM | > 100 µM | > 100 µM | > 100 µM | > 100 µM | > 100 µM | > 100 µM | > 100 µM | > 100 µM | > 100 µM | > 100 µM | > 100 µM | > 100 µM | – | –
2 | C=CCNC(=O)N(CCC)CCCC(NC(C)=O)C(=O)NCc1ccccc1 (stereo not drawn) | – | > 100 µM | – | > 100 µM | – | – | – | > 100 µM | – | – | – | > 100 µM | – | > 100 µM | – | – | – | > 100 µM | > 100 µM | –
3 | O=C(/C=C/c1cccc(O)c1)c1cccc(-n2cc(-c3ccc4ccccc4c3)[nH]c2=O)c1 | 1.44 µM | 3.56 µM | 2.64 µM | 13.9 µM | 0.407 µM | 1.45 µM | 3.38 µM | 12.7 µM | 2.13 µM | 5.11 µM | 2.15 µM | 6.73 µM | 3.79 µM | 12.4 µM | – | – | 2.26 µM | 4.29 µM | 7.97 µM | 2.31 µM
4 | CC1=NN(C(=O)c2ccncc2)C(=O)C1N=Nc1ccc(F)cc1 (stereo not drawn) | – | > 100 µM | – | > 100 µM | – | > 100 µM | – | > 100 µM | – | – | – | > 100 µM | – | > 100 µM | – | – | – | – | > 100 µM | –
5 | CCCCCCC(C)CCCCCCCCCCC(=O)O (stereo not drawn) | – | > 100 µM | – | > 100 µM | – | > 100 µM | – | > 100 µM | – | – | – | > 100 µM | – | > 100 µM | – | > 100 µM | – | > 100 µM | > 100 µM | –
6 | COc1ccc2c(NCCCCCCNc3c4ccccc4nc4cc(OC)ccc34)c3ccccc3nc2c1 | – | 1.49 µM | – | 2.53 µM | – | 0.333 µM | – | 11.9 µM | – | 0.451 µM | – | 2.04 µM | – | – | – | 1.54 µM | – | 0.946 µM | 1.67 µM | –
7 | Cc1c(C(=O)/C=C/c2ccccc2[N+](=O)[O-])[n+](=O)c2ccccc2n1[O-] | – | 18.6 µM | – | 27.6 µM | – | 16.5 µM | – | 34.3 µM | – | – | – | 31.8 µM | – | 25.5 µM | – | 31.6 µM | – | 32.2 µM | 24.1 µM | –
8 | Cn1c(=O)nc2n(-c3ccc(Cl)c(C(F)(F)F)c3)c3ccccc3nc-2c1=O | – | > 100 µM | – | > 83.9 µM | – | > 79.4 µM | – | > 86.3 µM | – | 80.8 µM | – | > 100 µM | – | > 100 µM | – | – | – | > 100 µM | > 100 µM | –
9 | CC(C)(C)c1ccc(OC2CCO2)cc1 (stereo not drawn) | – | 38.1 µM | – | 90.1 µM | – | 41.8 µM | – | > 100 µM | – | 94.1 µM | – | > 100 µM | – | > 100 µM | – | – | – | > 100 µM | – | –
10 | O=[N+]([O-])c1ccc(-c2cc3c(Nc4ccc(Cl)c(C(F)(F)F)c4)ncnc3s2)cc1 | 1.16 µM | > 100 µM | 2.61 µM | > 100 µM | 1.51 µM | > 100 µM | 1.38 µM | > 100 µM | 2.02 µM | > 100 µM | 2.77 µM | > 26.3 µM | 2.24 µM | > 100 µM | – | – | 3.13 µM | > 100 µM | 6.42 µM | 2.4 µM
11 | N#CC(C#N)=c1c2nsnc2c(=C(C#N)C#N)c2nsnc12 | – | – | – | 14.9 µM | – | 3.71 µM | – | 10.3 µM | – | 3.25 µM | – | – | – | 3.3 µM | – | – | – | 3.59 µM | 3.53 µM | –
12 | N.N.N.N.N.O=S(=O)([O-])S(=O)(=O)[O-].[Co+3] | > 100 µM | > 100 µM | > 100 µM | > 100 µM | > 100 µM | > 100 µM | > 100 µM | > 100 µM | – | – | > 100 µM | > 100 µM | > 100 µM | > 100 µM | – | – | – | – | > 100 µM | > 100 µM
13 | Cc1c2ccncc2c(C)c2c1[nH]c1ccc(O)c(OCC(F)(F)F)c12 | – | 20.8 µM | – | 20.5 µM | – | 9.11 µM | – | 16.5 µM | – | 19.3 µM | – | 19.9 µM | – | 22.4 µM | – | – | – | 20.9 µM | 22.9 µM | –
14 | Cc1nc(-c2cccnc2)sc1C(=O)/C=C/c1cccc([N+](=O)[O-])c1 | – | > 100 µM | – | > 100 µM | – | – | – | > 100 µM | – | > 100 µM | – | > 100 µM | – | > 100 µM | – | – | – | > 100 µM | > 100 µM | –
15 | c1ccc(-c2nc(N3CCCNCC3)c3nc(-c4ccccc4)oc3n2)cc1 | 1.74 µM | 3.38 µM | 1.65 µM | 3.17 µM | 1.65 µM | 3.35 µM | 1.8 µM | 3.71 µM | 1.53 µM | 3.02 µM | 1.74 µM | 3.19 µM | 1.71 µM | 3.15 µM | – | – | 1.58 µM | 3.23 µM | 3.49 µM | 1.83 µM
16 | O=C1c2ccccc2-c2c1c1c(NCCCO)nc3ccccc3c1n2Cc1ccccc1 | 26 µM | 62.5 µM | 27.5 µM | 64.4 µM | 15.8 µM | 35.1 µM | 29.7 µM | 75.5 µM | – | – | 21.9 µM | 40.4 µM | 20.6 µM | 38.1 µM | 6.04 µM | 24.1 µM | 19.3 µM | 35.7 µM | 52.3 µM | 20.4 µM
17 | COc1cc(C2c3cc4c(cc3[C@@H](Nc3ccc5c(c3)OCCO5)C3COC(=O)[C@H]23)OCO4)cc(OC)c1O (stereo partly drawn) | – | 10.2 µM | – | 17 µM | – | 8 µM | – | 7.15 µM | – | 3.65 µM | – | 8.7 µM | – | > 47.6 µM | – | – | – | 1.31 µM | 12 µM | –
18 | CC(=O)n1c(=O)c2cc3c(=O)n(-c4cccc(C#N)c4)c(=O)c3cc2c1=O | – | > 100 µM | – | > 100 µM | – | > 100 µM | – | > 100 µM | – | > 100 µM | – | > 100 µM | – | > 100 µM | – | – | – | > 100 µM | > 100 µM | –
19 | O=C(CC1(O)C(=O)Nc2c(Cl)ccc(Cl)c21)c1ccc(Cl)cc1Cl (stereo not drawn) | – | 30.5 µM | – | 44 µM | – | 33.1 µM | – | 47.2 µM | – | 32.2 µM | – | 46.6 µM | – | 38.8 µM | – | – | – | 59.5 µM | 48.9 µM | –
